From patent US12005125B2, “Nanoparticles for use in photodynamic therapies and methods of making, evaluating and using the same” (Mi2 Holdings LLC, priority 2020, dated 2024)

Legend:
[1] = ADMA fluorescent probe test: rate of total Type 1 and 2 ROS production by an illuminated photosensitizer (k-value); type: physicochemical; settings: for k (rate constant of Type 1 and 2 ROS production, slope of Ln(I/I0) of ADMA vs time): free PS illuminated at the wavelength of its maxima, [PS] E-6 (clinically relevant 1-2 uM); for k′ (k/kstd): relative to methylene blue (MB) as standard; for k″ (1−k′): x coordinate of PS grid, MB = origin
Description: (§1) Discussed below are evaluations methods and system for evaluating a PS for Type ½ Production. The above describes the parameters that would best define an ideal practical PS. […] This can be semi-quantitatively analyzed using fluorescent molecular probes that scavenge Type ½ ROS. Two specific probes ideal for this are 9,10-anthracene bis(methylene) dimalonic acid (ADMA) and singlet oxygen sensor green (SOSG).
(§2) Anthracene and its derivatives are sensitive to both Type 1 and Type 2 ROS, while SOSG is specifically for Type 2 ROS studies.^9 By tracking the fluorescent changes of these probes over time, the Type ½ ROS and rates of production by a set of PSs can be directly compared in a semi-quantitative manner. In the work to follow, AMDA is the anthracene derivative utilized.
ADMA decays according to first order rate law kinetics. As such, the rate of total Type 1 and 2 ROS may be studied by tracking its fluorescence loss over time as a natural log, yielding a linear plot whose slope is the rate constant of Type 1 and 2 ROS production (referred to as the k-value). The greater the rate constant, the more Type 1 and Type 2 ROS being produced, and thus PSs compared under identical conditions (equivalent [PS], [02], flux, temp) can be semi-quantitatively compared.
(§3) Combining the findings of the SOSG and ADMA tests, semi-quantitative comparisons and estimates about the performance of PSs in a given set may be extrapolated, when performed under identical conditions (equivalent [PS], [O2], flux, temp). This will aid in choosing a PS that maximizes PDT efficacy by showing it has a minimum of Type 1 ROS and maximum of Type 2 ROS production, while also producing at a sufficient rate to efficiently ablate tissue.
(§4) The exact method of study is as follows, using a factory default Horiba Duetta:
(§5) 3. Pulse the molecular probe for initial fluorescence
(§6) • a. Simple fluorescence scan • b. […] Ex/Em slits for both=⅔ nm, Integration for 1 second, 5 scans • e. The peak of highest counts is used 2. The PS is illuminated using the wavelength of its maxima for a set amount of time • a. Fixed wavelength fluorescent study mode; choose a time point desired • b. Ex/Em bandwidth=10/1 nm 4. Pulse the molecular probe for fluorescent changes 5. Repeat Steps 2 and 3 until the range time values desired is covered 6. Treat the data • a. Anthracene=Ln(I/I0) vs time; slope=k-value • b. SOSG=I/I0 vs time; slope=S-value
(§7) Using a PS as an assigned origin (standard by which all other PSs are compared to), any PS may be charted by comparing the k and S-values (k/kstd=k′, S/Sstd=S′, k″=1−k′, S″=S′−1) at clinically relevant concentrations (1-2 uM). By plotting the k″ and S″ values as x,y coordinates (respectively), the semi-quantitative comparison of PSs against each other may be directly visualized; the origin PS will have a position of 0,0. The x-axis will then stretch from −∞ to 1, and y-axis from −1 to ∞.

[2] = SOSG (singlet oxygen sensor green) fluorescent probe test: Type 2 ROS production by an illuminated photosensitizer (S-value); type: physicochemical; settings: for S (slope of SOSG I/I0 vs time, Type 2 ROS production): free PS illuminated at the wavelength of its maxima, [PS] E-6 (clinically relevant 1-2 uM); for S′ (S/Sstd): relative to methylene blue (MB) as standard; for S″ (S′−1): y coordinate of PS grid, MB = origin
Description: as §1, §2
SOSG functions in a manner opposite to that of the anthracene probe; instead of a fluorescence loss, SOSG experiences a fluorescence enhancement when interacting with Type 2 ROS; Type 1 ROS has no effect. […] Therefore, the steeper the slope (S-value), the more Type 2 ROS being produced.
as §3, §4, §5, §6, §7

[3] = when covalently conjugated to 8PEGA; cited from earlier work
[4] = cited from earlier work

Row | Molecule | k (rate constant of Type 1 and 2 ROS production, slope of Ln(I/I0) of ADMA vs time) [1] | k′ (k/kstd) [1] | k″ (1−k′) [1] | S (slope of SOSG I/I0 vs time, Type 2 ROS production) [2] | S′ (S/Sstd) [2] | S″ (S′−1) [2] | k-values [3] | solubility in aqueous media ([4]; when covalently conjugated to 8PEGA) | k-vlaue (E-4) ([1]; [PS] 3.99E−06) | SOSG (E-2) ([2]; [PS] 3.91E−06) | solubility in water [4]
1 | CN(C)c1ccc2nc3ccc(=[N+](C)C)cc-3sc2c1 [MB, Methylene blue] | 6.13 E-4 s^−1 | 1 | 0.00 | 0.46 E−2 s^−1 | 1 | 0.00 |  |  |  |  | 
2 | Chlorin e6 [Ce6] | 0.94 E-4 s^−1 | 0.153 | 0.85 | 0.73 E−2 s^−1 | 1.59 | 0.59 | improved | markedly enhanced |  |  | 
3 | CCNc1cc2[s+]c3cc(NCC)c(C)cc3nc2cc1C.[Cl-] [NMB, New Methylene Blue] | 12.1 E-4 s^−1 | 1.97 | −0.97 | 0.96 E−2 s^−1 | 2.09 | 1.09 |  |  |  |  | 
4 | Verteporfin | 0.16 E-4 s^−1 | 0.03 | 0.97 | 0.06 E−2 s^−1 | 0.13 | −0.87 |  |  |  |  | 
5 | IRDye 700DX HHS Ester [IR700] | 1.83 E-4 s^−1 | 0.299 | 0.70 | 2.04 E−2 s^−1 | 4.43 | 3.43 |  |  | 2.62 E-4 | 2.89 E-2 | water soluble, having good solubility
